From ChEMBL document CHEMBL4483862, “Open-source discovery of chemical leads for next-generation chemoprotective antimalarials” (2018)

Test system: Plasmodium berghei
Assay: Luciferase/luciferin-expressing antifolate-resistant parasites were used to infect a culture of HepG2 cells that were pre-incubated with compounds. Infected hepatocytes emit light due to the luciferase reaction. Assay results are presented as the percent inhibition of light emission compared to control. […]
Type: functional
Settings: sporozoite; for IC90: read-out: LUCIFERASE INFECTION ASSAY - IC90
[1] = read-out: LUCIFERASE INFECTION ASSAY - IC50

Work on `O=C(CN1CCC(C(=O)Nc2ccccc2O)CC1)Nc1nc(-c2cccc([N+](=O)[O-])c2)cs1` yielded an IC50 (PBLUC_HILL_SLOPE 3.03, PBLUC_R_SQUARED 0.0575, read-out: LUCIFERASE INFECTION ASSAY - IC50) of 6.47 µM and an IC90 greater than 10 µM.

Work on `O=C(/C=C/c1cccnc1)c1ccc(S(=O)(=O)NCc2ccccc2Cl)cc1` yielded an IC50 (FFLUC_HILL_SLOPE 11, FFLUC_R_SQUARED 0.373, HEPG2TOX_HILL_SLOPE 8.76, HEPG2TOX_R_SQUARED 0.66, PBLUC_HILL_SLOPE 5.1, PBLUC_R_SQUARED 0.695, read-out: LUCIFERASE INFECTION ASSAY - IC50) of 3.85 µM and an IC90 of 5.93 µM.

`CC(C)(C)c1cc(C(=O)OCC(=O)NC(c2ccccc2)c2ccccc2)cc(C(C)(C)C)c1` showed an IC50 (FFLUC_HILL_SLOPE 15.9, FFLUC_R_SQUARED 0.274, HEPG2TOX_HILL_SLOPE 1.64, HEPG2TOX_R_SQUARED 0.592, PBLUC_HILL_SLOPE 2.07, PBLUC_R_SQUARED 0.325, read-out: LUCIFERASE INFECTION ASSAY - IC50) of 7.82 µM and an IC90 greater than 10 µM.

Work on `O=C(Nc1nonc1-c1cccs1)c1sc2cc(Cl)ccc2c1Cl` yielded an IC50 (FFLUC_HILL_SLOPE 17.9, FFLUC_R_SQUARED 0.511, HEPG2TOX_HILL_SLOPE 2.63, HEPG2TOX_R_SQUARED 0.88, PBLUC_HILL_SLOPE 16.1, PBLUC_R_SQUARED 0.687, read-out: LUCIFERASE INFECTION ASSAY - IC50) of 2.41 µM and an IC90 of 2.76 µM.

With `CCOC(=O)C1CCCN(Cn2nc(-c3ccc(Br)cc3)n(C3CCCCC3)c2=S)C1` (centres undefined) the IC50 (PBLUC_HILL_SLOPE 2.91, PBLUC_R_SQUARED 0.109, read-out: LUCIFERASE INFECTION ASSAY - IC50) was 5.86 µM and the IC90 was greater than 10 µM.

For `C=CCNC(=S)Nc1ccc(Oc2cc(C(F)(F)F)cc(C(F)(F)F)c2)cc1`, the IC50 [1] was 3.04 µM and the IC90 was 6.91 µM.

For `COc1ccc(-c2nnc(SC(C)C(=O)NC(C)c3ccc(Cl)cc3Cl)[nH]2)cc1` (centres undefined), the IC50 (PBLUC_HILL_SLOPE 2.09, PBLUC_R_SQUARED 0.0748, read-out: LUCIFERASE INFECTION ASSAY - IC50) was 5.53 µM and the IC90 was greater than 10 µM.

`CN1CCN(c2ccc(-c3cn4c(-c5cccc(O)c5)cnc4cn3)cn2)CC1` showed an IC50 (PBLUC_HILL_SLOPE 4.85, PBLUC_R_SQUARED 0.265, read-out: LUCIFERASE INFECTION ASSAY - IC50) of 7.18 µM and an IC90 greater than 8.54 µM.

With `Cc1cc(C(=O)/C(C#N)=N/Nc2cccc(Cl)c2)n(C(C)(C)C)n1` the IC50 (HEPG2TOX_HILL_SLOPE 1.25, HEPG2TOX_R_SQUARED 0.973, PBLUC_HILL_SLOPE 1.27, PBLUC_R_SQUARED 0.674, read-out: LUCIFERASE INFECTION ASSAY - IC50) was 3.49 µM and the IC90 was greater than 9.6 µM.

Work on `Cc1ccc2nc(C(F)(F)F)c(C(=O)NCc3cc(Cl)cc(Cl)c3)n2c1` yielded an IC50 [1] greater than 8.2 µM and an IC90 greater than 8.2 µM.

In the case of `CCOC(=O)c1sc(SCc2ccc(Cl)cc2)c(S(=O)(=O)C(C)C)c1-n1cccc1`, the IC50 (FFLUC_HILL_SLOPE 13.5, FFLUC_R_SQUARED 0.375, read-out: LUCIFERASE INFECTION ASSAY - IC50) is reported as greater than 6.82 µM and the IC90 is reported as greater than 6.82 µM.

With `COc1ccc(-c2nn(-c3ccccc3)cc2/C=C/C(=O)OCc2ncc(Cl)n2C)cc1OC` the IC50 [1] was greater than 10 µM and the IC90 was greater than 10 µM.

`CCc1ccccc1-n1c(SCCn2c(=O)oc3ccccc32)nc2ccccc2c1=O` was tested, and the IC50 [1] was greater than 10 µM and the IC90 was greater than 10 µM.

Compound `COc1ccccc1CNC(=O)CSc1nnc(-c2ccccc2)c2ccccc12` has an IC50 [1] greater than 10 µM and an IC90 greater than 10 µM.

`CC(=O)c1cnc(N)nc1C` showed an IC50 [1] greater than 21.8 µM and an IC90 greater than 21.8 µM.

`CC(C)(C)c1ccc(C(=O)NNC(=S)Nc2cccc(C(F)(F)F)c2)cc1` gave an IC50 [1] of 7.4 µM and an IC90 greater than 8.34 µM.

Work on `ONC(=NC(=S)Nc1cc(Cl)ccc1Cl)c1ccccn1` yielded an IC50 (HEPG2TOX_HILL_SLOPE 1.13, HEPG2TOX_R_SQUARED 0.776, PBLUC_HILL_SLOPE 15.8, PBLUC_R_SQUARED 0.357, read-out: LUCIFERASE INFECTION ASSAY - IC50) of 8.29 µM and an IC90 of 9.52 µM.

For `Cc1cc(/C=C(\C#N)c2nc3ccccc3s2)c(C)n1-c1ccc(F)cc1`, the IC50 [1] was greater than 10 µM and the IC90 was greater than 10 µM.

Compound `CC(C)(C)c1ccc(CSc2nncn2-c2ccc(OCc3ccccc3)cc2)cc1` has an IC50 (PBLUC_HILL_SLOPE 2.75, PBLUC_R_SQUARED 0.0661, read-out: LUCIFERASE INFECTION ASSAY - IC50) of 5.39 µM and an IC90 greater than 7.68 µM.

In the case of `CN(C)c1cccc(-c2cnc3cnc(-c4cccc(C(N)=O)c4)cn23)c1`, the IC50 (PBLUC_HILL_SLOPE 15.5, PBLUC_R_SQUARED 0.533, read-out: LUCIFERASE INFECTION ASSAY - IC50) is reported as 8.74 µM and the IC90 is reported as greater than 9.23 µM.

With `C=S(=O)(NC(=O)CSc1nc2ccccc2s1)c1ccc(Cl)cc1` (centres undefined) the IC50 (FFLUC_HILL_SLOPE 11.2, FFLUC_R_SQUARED 0.126, read-out: LUCIFERASE INFECTION ASSAY - IC50) was greater than 8.31 µM and the IC90 was greater than 8.31 µM.

Compound `Cc1csc(NC(=O)Nc2ccc(C(F)(F)F)cc2)c1Cl` has an IC50 (HEPG2TOX_HILL_SLOPE 12, HEPG2TOX_R_SQUARED 0.807, PBLUC_HILL_SLOPE 11.1, PBLUC_R_SQUARED 0.14, read-out: LUCIFERASE INFECTION ASSAY - IC50) of 3.63 µM and an IC90 of 4.43 µM.

`CC(C)(C)c1ccc(-c2nnc(SCC(=O)N(Cc3ccccc3)c3nc(-c4ccc(Cl)cc4)cs3)n2-c2ccc(Br)cc2)cc1` was tested, and the IC50 [1] was greater than 10 µM and the IC90 was greater than 10 µM.

With `Cc1c(Sc2ccccc2[N+](=O)[O-])c2ccccn2c1C(=O)c1ccc(Br)cc1` the IC50 (FFLUC_HILL_SLOPE 12.7, FFLUC_R_SQUARED 0.226, PBLUC_HILL_SLOPE 11.1, PBLUC_R_SQUARED 0.312, read-out: LUCIFERASE INFECTION ASSAY - IC50) was 9.73 µM and the IC90 was greater than 10 µM.

With `N#Cc1ccc(-c2cnc3cnc(-c4cccs4)cn23)cc1` the IC50 (PBLUC_HILL_SLOPE 3.09, PBLUC_R_SQUARED 0.489, read-out: LUCIFERASE INFECTION ASSAY - IC50) was 4.51 µM and the IC90 was 9.18 µM.

`Cc1sc2ncnc(Sc3ccccc3C(=O)NNc3c(Cl)cc(Cl)cc3Cl)c2c1C` showed an IC50 [1] greater than 10 µM and an IC90 greater than 10 µM.

`CCC(C)NC(=O)c1c(NC(=O)c2cccc(C#N)c2)nc2ccc(C)cn12` (centres undefined) gave an IC50 (HEPG2TOX_HILL_SLOPE 2.26, HEPG2TOX_R_SQUARED 0.914, PBLUC_HILL_SLOPE 14.3, PBLUC_R_SQUARED 0.23, read-out: LUCIFERASE INFECTION ASSAY - IC50) of 3.25 µM and an IC90 of 3.79 µM.

`CCn1c(=O)n(CCC(=O)N(CC2CCCO2)c2nc3ccccc3s2)c2ccccc21` (centres undefined) showed an IC50 [1] greater than 10 µM and an IC90 greater than 10 µM.

`Cc1ccc2nc(C)c(CN3CCN(c4ccc([N+](=O)[O-])cc4Cl)CC3)n2c1` gave an IC50 [1] greater than 10 µM and an IC90 greater than 10 µM.

`Cc1c(C(=O)Nc2nc(CN3CC(C)CC(C)C3)cs2)[nH]c2c1C(=O)CC(C)(C)C2` (centres undefined) was tested, and the IC50 (PBLUC_HILL_SLOPE 1.7, PBLUC_R_SQUARED 0.746, read-out: LUCIFERASE INFECTION ASSAY - IC50) was 2.74 µM and the IC90 was 9.99 µM.

`CN(C)S(=O)(=O)c1ccc(CNc2ccnc3cc(Cl)ccc23)s1` was tested, and the IC50 (PBLUC_HILL_SLOPE 38.6, PBLUC_R_SQUARED 0.0785, read-out: LUCIFERASE INFECTION ASSAY - IC50) was 3.4 µM and the IC90 was 3.6 µM.

`CCOC(=O)c1cc(C#N)c(Sc2n[nH]c(=O)n2Cc2ccccc2)nc1C(F)(F)F` gave an IC50 [1] greater than 7.34 µM and an IC90 greater than 7.34 µM.

Work on `O=C(Nc1ccc(Oc2ccc([N+](=O)[O-])c3cnccc23)cc1)c1ccccc1` yielded an IC50 (FFLUC_HILL_SLOPE 3.45, FFLUC_R_SQUARED 0.514, PBLUC_HILL_SLOPE 3.38, PBLUC_R_SQUARED 0.0773, read-out: LUCIFERASE INFECTION ASSAY - IC50) of 7.36 µM and an IC90 greater than 10 µM.

With `CCc1cc[n+](CC(=O)Nc2cc3oc4ccccc4c3cc2OC)cc1` the IC50 (HEPG2TOX_HILL_SLOPE 8.94, HEPG2TOX_R_SQUARED 0.562, PBLUC_HILL_SLOPE 18.1, PBLUC_R_SQUARED 0.422, read-out: LUCIFERASE INFECTION ASSAY - IC50) was 8.29 µM and the IC90 was 9.36 µM.

`COc1ccc(-c2cc3ncnc(NCc4ccc(N5CCN(C)CC5)nc4)c3s2)cc1` showed an IC50 (HEPG2TOX_HILL_SLOPE 1.93, HEPG2TOX_R_SQUARED 0.825, PBLUC_HILL_SLOPE 2.26, PBLUC_R_SQUARED 0.8, read-out: LUCIFERASE INFECTION ASSAY - IC50) of 1.81 µM and an IC90 of 4.79 µM.

Work on `FC(F)Sc1ccc(Nc2ncnc3sccc23)cc1` yielded an IC50 (PBLUC_HILL_SLOPE 12.8, PBLUC_R_SQUARED 0.441, read-out: LUCIFERASE INFECTION ASSAY - IC50) of 9.17 µM and an IC90 greater than 10 µM.

`O=C(CCN1c2ccccc2Sc2ccccc21)N1CCCS/C1=N\c1ccccc1` gave an IC50 [1] greater than 10 µM and an IC90 greater than 10 µM.

With `OCCNc1nc(Sc2ccc(Cl)cc2)nc2ccccc12` the IC50 [1] was greater than 10 µM and the IC90 was greater than 10 µM.

Work on `Cn1c(N)c(C(=O)CSc2nc(-c3ccccc3)c(-c3ccccc3)o2)c(=O)n(C)c1=O` yielded an IC50 (HEPG2TOX_HILL_SLOPE 1.35, HEPG2TOX_R_SQUARED 0.367, PBLUC_HILL_SLOPE 15.8, PBLUC_R_SQUARED 0.143, read-out: LUCIFERASE INFECTION ASSAY - IC50) of 9 µM and an IC90 greater than 10 µM.

`COc1cc(OC)cc(C(=O)Nc2nc3ccc(C)cn3c2C(=O)NC2CCCC2)c1` gave an IC50 (HEPG2TOX_HILL_SLOPE 8.61, HEPG2TOX_R_SQUARED 0.625, PBLUC_HILL_SLOPE 3.28, PBLUC_R_SQUARED 0.589, read-out: LUCIFERASE INFECTION ASSAY - IC50) of 3.16 µM and an IC90 of 6.19 µM.

Work on `c1ccc(-c2cc(N3CCCCC3)c3ccccc3n2)nc1` yielded an IC50 (PBLUC_HILL_SLOPE 9.83, PBLUC_R_SQUARED 0.0291, read-out: LUCIFERASE INFECTION ASSAY - IC50) of 10.3 µM and an IC90 greater than 11.4 µM.

With `Cc1noc(N)c1-c1nc(-c2cccc(C(F)(F)F)c2)cs1` the IC50 (HEPG2TOX_HILL_SLOPE 3.53, HEPG2TOX_R_SQUARED 0.703, read-out: LUCIFERASE INFECTION ASSAY - IC50) was greater than 10.1 µM and the IC90 was greater than 10.1 µM.
